The results in this text go back to publication PMC11312998, “Molecular Pro-Apoptotic Activities of Flavanone Derivatives in Cyclodextrin Complexes: New Implications for Anticancer Therapy” (International Journal of Molecular Sciences, 2024).

One assay deals with Hec-1-A. Put plainly: Plasma membrane fluidity, TMA-DPH fluorescence anisotropy. Type of assay: cell-based, human. Particulars: IC50 concentration, 24 h. Here is the method:
(§1) Changes in plasma membrane fluidity were determined by fluorescence spectroscopy and two fluorescent probes located at different depths of the lipid bilayer: TMA-DPH ((1-(4-Trimethylammoniumphenyl)-6-Phenyl-1,3,5-Hexatriene p-Toluene sulfonate, Sigma-Aldrich; St. Louis, MO, USA) and DAUDA (11-[5-(Dimethylamino)-1-naphthalenesulfonylamino] undecanoic acid, Sigma-Aldrich, St. Louis, MO, USA). TMA-DPH is incorporated in the superficial area of the outer monolayer, while DAUDA penetrates into the deeper hydrophobic area of the membrane. The fluorescence of the probes was measured on a Perkin-Elmer spectrofluorometer (Waltham, MA, USA) with an attachment for measuring fluorescence anisotropy with parallel and perpendicular positions of the polarizers.
(§2) Cells were seeded on sterile 35 mm dishes in numbers appropriate for a given cell line. […] After 24 h incubation, the cells were trypsinized and transferred to Eppendorf tubes (0.5 mL of suspension/sample). The cell suspension was centrifuged at 2500 rpm for 5 min at 4 °C. […] Fluorescence measurements were made on a Perkin-Elmer LS-5B spectrofluorometer (MA, USA) in an attachment with a polarizer, reading the fluorescence anisotropy at an excitation wavelength λex = 365 nm and emission wavelength λem = 425 nm (TMA-DPH), as well as excitation wavelength λex = 350 nm and emission wavelength λem = 420 nm (DAUDA).

The next assay deals with Ishikawa. The assay is described as above. Type of assay: cell-based, human. The settings on record: IC50 concentration, 24 h. As for the experimental part: as §1, §2

Turning to `COc1cccc(/C=C2/C(=O)c3ccccc3OC2c2ccccc2)c1` (centres unmarked) [Compound 3], the “increase in cell membrane fluidity (TMA-DPH)” value with Hec-1-A was “approximately 20%”.
Turning to `O=C1/C(=C/c2ccccc2)C(c2ccccc2)Oc2ccccc21` (centres unmarked) [Compound 5], the “increase in cell membrane fluidity (TMA-DPH)” value in the assay with Ishikawa is “approximately 20%”.
